Bridge positions count the residues as written; N and C are the ends. Square brackets hold non-standard residues; d marks the D form. Peptide text beside a SMILES is read from it. * marks the point of attachment. ξ: configuration not given here. X1 = NC(CO)C(=O)NC(Cc1ccccc1)C(=O)NCCCCN*; ξE = NC(CCC(=O)O)C(=O)O; ξK = NCCCCC(N)C(=O)O
How the values were obtained:
[1] = molecular target: T1, Programmed cell death 1 ligand 1 (Homo sapiens, UniProt Q9NZQ7); assay: Antagonist activity against PDL1 (unknown origin)
Splenocyte [2] = assay: Antiproliferative activity against mouse splenocytes relative to control; format: functional; design: concentration or dose not given beside the values
[3] = molecular target: Programmed cell death protein 1/Programmed cell death 1 ligand 1 (Homo sapiens, UniProt Q15116+Q9NZQ7); assay: Inhibition of human PD1/PDL1 protein-protein interaction by HTRF assay; format: protein-complex assay
B16-F10 = assay: Antitumor activity against mouse B16F10 cells xenografted in mouse assessed as reduction in tumor growth at 5 mg/kg, sc qd after 14 days relative to control; format: functional; settings: 336 h, read-out: TGI
Splenocyte [4] = assay: Antiproliferative activity against mouse splenocytes at 100 nM relative to control; format: functional
[5] = molecular target: T2, Programmed cell death 1 ligand 2 (Homo sapiens, UniProt Q9BQ51); assay: Inhibition of PDL2 (unknown origin)
T2 sequence (Q9BQ51 whole entry): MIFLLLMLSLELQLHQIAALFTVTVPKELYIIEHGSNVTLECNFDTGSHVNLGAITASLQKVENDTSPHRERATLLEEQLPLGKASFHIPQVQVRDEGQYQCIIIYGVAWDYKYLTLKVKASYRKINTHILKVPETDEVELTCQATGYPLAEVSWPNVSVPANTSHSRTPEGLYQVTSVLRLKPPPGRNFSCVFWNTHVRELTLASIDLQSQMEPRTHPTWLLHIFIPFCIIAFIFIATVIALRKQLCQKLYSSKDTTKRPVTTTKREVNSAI

CT26 = assay: Antitumor activity against mouse CT26 cells xenografted in mouse assessed as reduction in tumor growth at 3 mg/kg after 25 days relative to control; format: functional; settings: CT26, 600 h, read-out: TGI
[6] = molecular target: T1, Programmed cell death 1 ligand 1; assay: Inhibition of PDL1 (unknown origin)
MDA-MB-231 = assay: Antiproliferative activity against human MDA-MB-231 cells; format: functional, cell-based
HEK293 = assay: Antiproliferative activity against HEK293 cells; format: functional, cell-based; settings: Homo sapiens
4T1 = assay: Antitumor activity against mouse 4T1 cells xenografted in mouse assessed as reduction in tumor growth at 3 mg/kg, sc qd after 40 days relative to control; format: functional; settings: 4T1, sc, 960 h, read-out: TGI

T1 sequence (Q9NZQ7 whole entry): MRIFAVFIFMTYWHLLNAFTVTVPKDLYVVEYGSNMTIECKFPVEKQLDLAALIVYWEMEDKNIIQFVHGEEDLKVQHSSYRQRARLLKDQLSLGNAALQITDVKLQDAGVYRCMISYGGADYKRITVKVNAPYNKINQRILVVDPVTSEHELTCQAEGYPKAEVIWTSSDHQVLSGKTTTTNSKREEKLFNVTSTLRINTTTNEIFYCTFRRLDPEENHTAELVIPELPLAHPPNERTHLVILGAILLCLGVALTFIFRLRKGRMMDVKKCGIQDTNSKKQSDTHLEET
Chain of Programmed cell death protein 1/Programmed cell death 1 ligand 1 (Q15116 whole entry): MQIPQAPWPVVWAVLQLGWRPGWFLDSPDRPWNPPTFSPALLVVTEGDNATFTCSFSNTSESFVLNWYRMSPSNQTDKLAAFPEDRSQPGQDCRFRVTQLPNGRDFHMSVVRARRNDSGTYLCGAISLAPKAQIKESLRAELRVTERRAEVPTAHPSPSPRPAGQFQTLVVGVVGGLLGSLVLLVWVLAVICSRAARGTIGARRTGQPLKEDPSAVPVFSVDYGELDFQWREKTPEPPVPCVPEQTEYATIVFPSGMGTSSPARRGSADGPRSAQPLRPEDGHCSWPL
Chain of Programmed cell death protein 1/Programmed cell death 1 ligand 1 (Q9NZQ7 whole entry): as the sequence (Q9NZQ7 whole entry) above

Cc1c(-c2ccccc2)cccc1-c1nc2c(s1)CNCC2
IC50 [1]: < 100 nM

O=C(O)C[C@H]1NC(=O)N[C@H](CO)C(=O)NCCOCCOCC(=O)N[C@@H](CO)C(=O)NNC1=O
Activity (Splenocyte [2]): 92%

NCCCC[C@H](N)c1nnc([C@H](CC(N)=O)NC(=O)N[C@@H](CCC(=O)O)C(=O)O)o1
Activity (Splenocyte [2]): 79%

Cc1c(/C=C/c2cc(CNC(C)(CO)C(=O)O)ccc2C(F)(F)F)cccc1-c1ccc2c(c1)OCCO2 (configuration not stated)
IC50 [3]: 18 nM

C#CC[C@H](NC(=O)N[C@H](C(=O)O)[C@@H](C)O)c1nc(-c2cnccn2)no1
Activity (Splenocyte [2]): 92%

Cc1c(COc2cc(OCc3cncc(C#N)c3)c(CN(C)C(CO)(CO)CO)cc2Cl)cccc1-c1cccc(OCCCN2CCC(F)(F)C2)c1C
IC50 [3]: 0.5 nM

NC(=O)C[C@H](NC(=O)N[C@@H](CO)C(=O)O)c1nc([C@@H](N)CO)no1
Activity (Splenocyte [2]): 91%

NC(=O)C[C@H](NC(=O)N[C@@H](CO)C(=O)O)c1nnc(-c2cnccn2)o1
Activity (Splenocyte [2]): 63%

N#Cc1cccc(COc2cc(OCc3cccc(-c4ccccc4)c3Br)c(Cl)cc2CN2CCCC[C@H]2C(=O)O)c1
IC50 [3]: 800000 nM

C[C@@H](O)[C@H](NC(=O)[C@H](CC(N)=O)NC(=O)[C@@H](N)CO)C(=O)N[C@@H](CO)C(=O)NC(CCC(=O)NCCCCNC(=O)C(Cc1ccccc1)NC(=O)C(N)CO)C(N)=O (some centres not stated) (H-SNTS[ξE](X1)-NH2)
inhibition in vivo at 5 mg/kg (B16-F10): 64%

N#Cc1c(NC(=O)c2ccc(CNCCO)cn2)cccc1-c1ccccc1
IC50 [3]: < 10 nM

Cc1c(NC(=O)c2cc(CN3CCCC[C@H]3C(=O)O)cn(C)c2=O)cccc1-c1ccccc1
IC50 [3]: < 100 nM

C[C@@H](O)[C@@H]1NC(=O)C(NC(=O)[C@@H](N)CO)CCC(=O)NCCCCC(C(=O)N[C@@H](CO)C(=O)N[C@@H](Cc2ccccc2)C(N)=O)NC(=O)[C@H](CO)NC1=O (some centres not stated) (H-S[ξE]TS[ξK]SF-NH2; lactam 2-5)
inhibition in vivo at 5 mg/kg (B16-F10): 54%
Activity (Splenocyte [4]): 78%

Cc1c(-c2ccccc2)cccc1-c1nc2cc(CNCCO)ccc2o1
IC50 [1]: < 100 nM

N#Cc1cncc(COc2cc(O[C@H]3CCc4c(-c5ccccc5)cccc43)c(Cl)cc2CN[C@@H](CO)C(=O)O)c1
IC50 [1]: < 100 nM

N#Cc1c(-c2ccc3c(c2)OCCO3)cccc1N1CCC(N[C@H]2C[C@@H](O)C2)CC1
IC50 [1]: < 100 nM

C[C@@H](O)[C@H](N)c1nnc([C@H](CCC(N)=O)NC(=O)N[C@@H](CO)C(=O)O)o1
Activity (Splenocyte [2]): 92%

Cc1c(COc2cc(OCc3cncc(C#N)c3)c(CN(C)C(C)(CO)CO)cc2Cl)cccc1-c1ccnc(OCCCN2CCCCC2)c1Cl
IC50 [3]: < 10 nM

C[C@@H](O)[C@H](NC(=O)N[C@@H](CC(N)=O)C(=O)NNC(=O)[C@@H](N)CO)C(=O)O
EC50 [5]: 40 nM
Activity (Splenocyte [4]): 68%
inhibition in vivo at 3 mg/kg (CT26): 46%
EC50 [6]: 30 nM

NC(=O)C[C@H](N)c1nc([C@@H](N)CO)no1
Activity (Splenocyte [4]): 93%

O=C(/C=C/c1ccc(O)c(O)c1)O[C@H]1C[C@@](O)(C(=O)O)C[C@H](O)[C@@H]1O
IC50 [1]: 36600 nM

NCCCC[C@H](NC(=O)N[C@@H](CC(N)=O)C(=O)NNC(=O)[C@@H](N)CO)C(=O)O
Activity (Splenocyte [2]): 87%

CCCNC(=O)CC[C@H](NC(=O)N[C@H](C(=O)O)[C@@H](C)O)c1nc([C@@H](N)CO)no1
Activity (Splenocyte [4]): 119%

CC[C@H](C)[C@H](NC(=O)[C@H](CCC(N)=O)NC(=O)[C@H](C)NC(=O)[C@H](CCCCN)NC(=O)[C@@H]1CCCN1C(=O)[C@H](C)NC(=O)[C@H](CC(C)C)NC(=O)[C@H](CCC(N)=O)NC(=O)[C@@H](NC(=O)[C@@H](NC(=O)[C@H](CCCNC(=N)N)NC(=O)[C@H](Cc1ccccc1)NC(=O)[C@H](CCCCNC(=O)[C@H](Cc1ccccc1)NC(=O)[C@H](CO)NC(=O)[C@H](CCC(=O)O)NC(=O)[C@H](CO)NC(=O)[C@@H](NC(=O)[C@H](CC(N)=O)NC(=O)[C@@H](N)CO)[C@@H](C)O)NC(=O)[C@H](Cc1ccccc1)NC(=O)[C@H](CO)NC(=O)[C@H](CCC(=O)O)NC(=O)[C@H](CO)NC(=O)[C@@H](NC(=O)[C@H](CC(N)=O)NC(=O)[C@@H](N)CO)[C@@H](C)O)C(C)C)[C@@H](C)O)C(=O)N[C@@H](CCCCN)C(=O)N[C@@H](CCC(=O)O)C(N)=O
inhibition in vivo at 5 mg/kg (B16-F10): 44%
IC50 (MDA-MB-231): 0.41 nM
IC50 (HEK293): 0.72 nM
inhibition in vivo at 3 mg/kg (4T1): 44%

Cc1c(-c2ccccc2)cccc1-c1cn2nc(CNCCO)cnc2n1
IC50 [1]: < 100 nM
